Among the data in ChEMBL document CHEMBL5653627 (J Neurochem, 2017) are Activity values, retold here.

Holding throughout (format): functional
Assay [1] deals with SMA-560. Description: Induction of apoptosis in mouse SMA-560 cells assessed as live cells incubated for 72 hrs by Annexin V-FITC/PI staining based flow cytometric analysis (reference value: 84.6%). Background: A flow cytometer gives signals particle by particle.
Assay [2] concerns SMA-560. The assay can be described thus: Induction of apoptosis in mouse SMA-560 cells assessed as late apoptotic cells incubated for 72 hrs by Annexin V-FITC/PI staining based flow cytometric analysis (reference value: 1.83%).
Assay [3] concerns SMA-560. The assay can be described thus: Induction of apoptosis in mouse SMA-560 cells assessed as early apoptotic cells incubated for 72 hrs by Annexin V-FITC/PI staining based flow cytometric analysis (reference value: 0.0056%).

Turning to `CN[C@@H]1C[C@H]2O[C@@](C)([C@@H]1OC)n1c3ccccc3c3c4c(c5c6ccccc6n2c5c31)C(=O)NC4` [STAUROSPORINE], the Activity in the assay on SMA-560 [1] is on record as 1.29%; with SMA-560 [2], 87.7%; in the assay with SMA-560 [3] it was 0%.
